The NIST ThermoML archive (doi:10.1021/je025657+)
Several values for one entry are separate records, joined by “and”; a condition that tells them apart may be missing. Equal entries are not always repeated. ± gives the expanded uncertainty stated by the source.

COC(F)(F)C(F)(F)F [methyl pentafluoroethyl ether]
Settings	mass density [kg/m3]
300 K, 953.1 kPa, Liquid	1264.98 ± 1.1
300 K, 1060.7 kPa, Liquid	1264.75 ± 1.2
300 K, 1531 kPa, Liquid	1267.74 ± 1.2
300 K, 2019 kPa, Liquid	1270.02 ± 1.2
300 K, 2031.9 kPa, Liquid	1269.32 ± 1.2
300 K, 2496.4 kPa, Liquid	1272.22 ± 1.3
300 K, 2993.2 kPa, Liquid	1274.45 ± 1.4
300 K, 3055.9 kPa, Liquid	1273.93 ± 1.4
300 K, 3514 kPa, Liquid	1276.75 ± 1.4
300 K, 4031 kPa, Liquid	1279 ± 1.5
300 K, 4031.8 kPa, Liquid	1278.16 ± 1.5
300 K, 4522.9 kPa, Liquid	1281.1 ± 1.5
300 K, 4978 kPa, Liquid	1283 ± 1.6
300 K, 5197 kPa, Liquid	1282.99 ± 1.6
300 K, 5491.3 kPa, Liquid	1285.12 ± 1.6
300 K, 5997.8 kPa, Liquid	1287.18 ± 1.7
300 K, 6173.2 kPa, Liquid	1286.91 ± 1.7
300 K, 6524.7 kPa, Liquid	1289.29 ± 1.7
300 K, 7023.9 kPa, Liquid	1291.24 ± 1.8
300 K, 7126.4 kPa, Liquid	1290.5 ± 1.8
310 K, 21.5 kPa, Gas	1.25 ± 0.28
310 K, 31.7 kPa, Gas	1.86 ± 0.28
310 K, 97.3 kPa, Gas	5.82 ± 0.29
310 K, 144.4 kPa, Gas	8.89 ± 0.3
310 K, 195.7 kPa, Gas	12.34 ± 0.31
310 K, 245.2 kPa, Gas	15.73 ± 0.32
310 K, 276.7 kPa, Gas	17.86 ± 0.32
310 K, 300.3 kPa, Liquid	1229.27 ± 0.98
310 K, 312.6 kPa, Liquid	1229.37 ± 0.98
310 K, 517 kPa, Liquid	1231.54 ± 1
310 K, 1007.8 kPa, Liquid	1234.36 ± 1.1
310 K, 1029.3 kPa, Liquid	1233.39 ± 1.1
310 K, 1513.8 kPa, Liquid	1237.16 ± 1.1
310 K, 2033.1 kPa, Liquid	1239.99 ± 1.1
310 K, 2065.7 kPa, Liquid	1238.99 ± 1.1
310 K, 2524.9 kPa, Liquid	1242.6 ± 1.2
310 K, 3064.4 kPa, Liquid	1245.4 ± 1.2
310 K, 3131.6 kPa, Liquid	1244.48 ± 1.2
310 K, 3532.8 kPa, Liquid	1247.78 ± 1.3
310 K, 3972.8 kPa, Liquid	1249.95 ± 1.3
310 K, 4126.7 kPa, Liquid	1249.38 ± 1.3
310 K, 4507.3 kPa, Liquid	1252.57 ± 1.4
310 K, 5034.7 kPa, Liquid	1255.08 ± 1.4
310 K, 5145.5 kPa, Liquid	1254.18 ± 1.4
310 K, 5514.9 kPa, Liquid	1257.34 ± 1.5
310 K, 6031.8 kPa, Liquid	1259.71 ± 1.5
310 K, 6158.3 kPa, Liquid	1258.81 ± 1.5
310 K, 6533.8 kPa, Liquid	1261.96 ± 1.6
310 K, 7010.8 kPa, Liquid	1264.09 ± 1.6
310 K, 7224 kPa, Liquid	1263.45 ± 1.6
320 K, 61.7 kPa, Gas	3.58 ± 0.28
320 K, 90.4 kPa, Gas	5.23 ± 0.29
320 K, 101.6 kPa, Gas	5.98 ± 0.29
320 K, 132 kPa, Gas	7.77 ± 0.29
320 K, 155.5 kPa, Gas	9.32 ± 0.3
320 K, 191.5 kPa, Gas	11.5 ± 0.3
320 K, 213.2 kPa, Gas	12.95 ± 0.31
320 K, 276.1 kPa, Gas	17.25 ± 0.32
320 K, 336.5 kPa, Gas	21.52 ± 0.33
320 K, 383 kPa, Gas	24.92 ± 0.34
320 K, 384.9 kPa, Gas	25.11 ± 0.34
320 K, 389.1 kPa, Gas	25.46 ± 0.34
320 K, 413.8 kPa, Liquid	1196.33 ± 0.88
320 K, 506.3 kPa, Liquid	1198.36 ± 0.89
320 K, 1023.1 kPa, Liquid	1201.87 ± 0.94
320 K, 1053 kPa, Liquid	1200.63 ± 0.94
320 K, 1521.8 kPa, Liquid	1205.15 ± 0.98
320 K, 2002.9 kPa, Liquid	1208.23 ± 1
320 K, 2051.9 kPa, Liquid	1207.02 ± 1
320 K, 2517.3 kPa, Liquid	1211.43 ± 1.1
320 K, 3022.6 kPa, Liquid	1214.49 ± 1.1
320 K, 3053.1 kPa, Liquid	1213.09 ± 1.1
320 K, 3517.5 kPa, Liquid	1217.45 ± 1.2
320 K, 4012.9 kPa, Liquid	1220.32 ± 1.2
320 K, 4120.2 kPa, Liquid	1219.2 ± 1.2
320 K, 4543.1 kPa, Liquid	1223.3 ± 1.2
320 K, 5018.6 kPa, Liquid	1225.9 ± 1.3
320 K, 5085.4 kPa, Liquid	1224.49 ± 1.3
320 K, 5551.9 kPa, Liquid	1228.77 ± 1.4
320 K, 5992.8 kPa, Liquid	1231.09 ± 1.4
320 K, 6206.6 kPa, Liquid	1230.35 ± 1.4
320 K, 6495.8 kPa, Liquid	1233.69 ± 1.4
320 K, 6965.6 kPa, Liquid	1236.06 ± 1.5
320 K, 7182.7 kPa, Liquid	1235.21 ± 1.5
330 K, 70.8 kPa, Gas	3.97 ± 0.28
330 K, 98.4 kPa, Gas	5.48 ± 0.29
330 K, 103.9 kPa, Gas	5.88 ± 0.29
330 K, 151.6 kPa, Gas	8.67 ± 0.3
330 K, 169.4 kPa, Gas	9.72 ± 0.3
330 K, 219.7 kPa, Gas	12.83 ± 0.31
330 K, 235.2 kPa, Gas	13.71 ± 0.31
330 K, 295.3 kPa, Gas	17.66 ± 0.32
330 K, 307.4 kPa, Gas	18.42 ± 0.32
330 K, 315.2 kPa, Gas	18.98 ± 0.32
330 K, 375.8 kPa, Gas	23.12 ± 0.34
330 K, 444.8 kPa, Gas	28.23 ± 0.35
330 K, 472.9 kPa, Gas	30.25 ± 0.35
330 K, 547.4 kPa, Liquid	1161.55 ± 0.78
330 K, 1004 kPa, Liquid	1165.27 ± 0.81
330 K, 1009.1 kPa, Liquid	1167.02 ± 0.82
330 K, 1493.2 kPa, Liquid	1170.86 ± 0.86
330 K, 1999 kPa, Liquid	1172.99 ± 0.89

mass density
Settings	300 K	310 K	320 K
Gas	–	23.61 ± 0.18 kg/m3	29.81 ± 0.19 kg/m3
Liquid	1260.39 ± 1.1 kg/m3 and 1261.37 ± 1.1 kg/m3 and 1261.41 ± 1.1 kg/m3	1230.28 ± 0.98 kg/m3	1196.29 ± 0.88 kg/m3 and 1197.68 ± 0.88 kg/m3
